Results as given in patent US4943561A, “Gastrin releasing peptide antagonist” (Merck & Co., Inc., priority 1988, dated 1990).
pIC50: −log10 of the molar value. Residues, ends and D or L forms follow the SMILES beside them. *: point of attachment. NH(2-Me-nonan-4R-yl) = CCCCC[C@H](CC(C)C)N*; NHCH(iBu)2 = CC(C)CC(CC(C)C)N*; X1 = CCCCC[C@@H](CC(C)C)N*; X2 = CCCC=C[C@H](CC(C)C)N*; Boc = CC(C)(C)OC(=O)*; Piv = CC(C)(C)C(=O)*; Ms = CS(=O)(=O)*

These compounds were tested against T1, GRP receptor (Mus musculus, UniProt P21729) (assay: Procedure A: Binding Inhibition Studies (competition with [3H-Phe15]GRP15-27)). Conditions: Swiss 3T3 cells; 3 nM [3H-Phe15]GRP15-27; 60 minutes at 15° C.
T1 construct: endogenous in cells; host or cells: Swiss 3T3 fibroblasts (intact monolayers)
T1 sequence (P21729 whole entry): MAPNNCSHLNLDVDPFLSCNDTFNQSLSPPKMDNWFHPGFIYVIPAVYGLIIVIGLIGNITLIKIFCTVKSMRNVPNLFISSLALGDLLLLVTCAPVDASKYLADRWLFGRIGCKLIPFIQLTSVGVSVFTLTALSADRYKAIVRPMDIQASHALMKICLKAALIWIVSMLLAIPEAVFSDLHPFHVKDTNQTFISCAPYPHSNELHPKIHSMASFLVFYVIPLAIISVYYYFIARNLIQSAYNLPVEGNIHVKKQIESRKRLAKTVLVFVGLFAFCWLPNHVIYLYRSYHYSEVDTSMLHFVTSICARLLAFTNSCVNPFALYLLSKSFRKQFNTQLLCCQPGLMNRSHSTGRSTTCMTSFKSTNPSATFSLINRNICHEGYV
Design: species or system murine
Experimental: (§1) The activity of the peptide derivatives of the present invention as GRP antagonists was determined in competitive binding assays with a radio-active GRP derivative. Swiss 3T3 fibroblasts were used in these tests as the source of GRP receptor. Because these cells respond to GRP binding with a rapid increase in DNA synthesis, compounds that bind to the GRP receptor can also be tested for their ability to stimulate DNA synthesis. New DNA synthesis is one of the early steps in cell division and is widely accepted as a measure of mitogenicity or cell growth. […] Compounds which block DNA synthesis are mitogenic antagonists.
Swiss 3T3 cells, obtained from Dr. K. Brown (Institute of Animal Physiology, Cambridge, U.K.), were grown to confluency in Costar 12 -well plates containing DMEM (Gibco) supplemented with 10% fetal bovine serum, 2 mM glutamine and 1% penicillin-streptomycin. The cells were washed twice with binding buffer [1:1 DMEM:Waymouths MB752/1 medium, plus 1 mg/ml BSA (Fraction V, Calbiochem)]. The antagonist was dissolved in 10 mM HCl, and diluted to the appropriate concentration in binding buffer. The antagonist was then added to the cells, followed by [^3 H Phe^15 ]GRP15-27 at a final concentration of 3 nM. After 60 minutes incubation at 15° C., the supernatant liquid was removed and the cell monolayer rinsed four times with washing buffer (150 mM NaCl, 20 mM Na2 HPO4, 5mM KCl, 1.8 mM KH2 PO4, 1 mg/ml BSA) The cells were then lysed with 1 ml/well of lysis buffer (1% Triton X-100, 0.1% BSA), and the solution was aspirated into scintillation vials for counting. Each data point was collected in triplicate.
`CCCCC[C@H](CC(C)C)NC(=O)[C@H](Cc1c[nH]cn1)NC(=O)CNC(=O)[C@@H](NC(=O)[C@H](C)NC(=O)[C@H](Cc1c[nH]c2ccccc12)NC(=O)[C@H](Cc1c[nH]cn1)NC(C)=O)C(C)C` [1(R)] (Ac-HWAVGH-{NH(2-Me-nonan-4R-yl)}) was tested, and the pIC50 was 8.70. `CCCCC[C@@H](CC(C)C)NC(=O)[C@H](Cc1c[nH]cn1)NC(=O)CNC(=O)[C@@H](NC(=O)[C@H](C)NC(=O)[C@H](Cc1c[nH]c2ccccc12)NC(=O)[C@H](Cc1c[nH]cn1)NC(C)=O)C(C)C` [1(S)] (Ac-HWAVGH-X1) gave a pIC50 of 7.77. `CCCCC[C@H](CC(C)C)NC(=O)[C@H](Cc1c[nH]cn1)NC(=O)CNC(=O)[C@@H](NC(=O)[C@H](C)NC(=O)[C@H](Cc1c[nH]c2ccccc12)NC(=O)[C@H](Cc1c[nH]cn1)NS(C)(=O)=O)C(C)C` [3(R)] (Ms-HWAVGH-{NH(2-Me-nonan-4R-yl)}) was tested, and the pIC50 was 7.82. With `CCCCC[C@H](CC(C)C)NC(=O)[C@H](Cc1c[nH]cn1)NC(=O)CNC(=O)[C@@H](NC(=O)[C@H](C)NC(=O)[C@H](Cc1c[nH]c2ccccc12)NC(=O)[C@H](Cc1c[nH]cn1)NC(=O)OC(C)(C)C)C(C)C` [5(R)] (Boc-HWAVGH-{NH(2-Me-nonan-4R-yl)}) the pIC50 was 8.70. With `CCCC=C[C@H](CC(C)C)NC(=O)[C@H](Cc1c[nH]cn1)NC(=O)CNC(=O)[C@@H](NC(=O)[C@H](C)NC(=O)[C@H](Cc1c[nH]c2ccccc12)NC(=O)[C@H](Cc1c[nH]cn1)NC(C)=O)C(C)C` [2(S)] (Ac-HWAVGH-X2) the pIC50 was 7.96. `CC(=O)N[C@@H](Cc1c[nH]cn1)C(=O)N[C@@H](Cc1c[nH]c2ccccc12)C(=O)N[C@@H](C)C(=O)N[C@H](C(=O)NCC(=O)N[C@@H](Cc1c[nH]cn1)C(=O)NC(CC(C)C)CC(C)C)C(C)C` [Example 6] (Ac-HWAVGH-{NHCH(iBu)2}) showed a pIC50 of 8.70. For `CCCCC[C@H](CC(C)C)NC(=O)[C@H](Cc1c[nH]cn1)NC(=O)CNC(=O)[C@@H](NC(=O)[C@H](C)NC(=O)[C@H](Cc1c[nH]c2ccccc12)NC(=O)[C@H](Cc1c[nH]cn1)NC(=O)C(C)(C)C)C(C)C` [4(R)] (Piv-HWAVGH-{NH(2-Me-nonan-4R-yl)}), the pIC50 was 8.52.

Each compound was assayed on Swiss 3T3 cells (assay: Procedure C: Mitogenesis Inhibition (GRP-stimulated 3H-thymidine uptake)). Conditions: GRP plus antagonist, 48 hours.
Type: cell-based, murine
Experimental: as §1, with “antagonists. […] Swiss 3T3 cells were grown in monolayer culture in 24 -well plates (Costar) in serum free DMEM for 48 hours, at which time the GRP or a GRP homologue. The antagonist and 23 nM ^3 H-thymidine were added. After an additional 48 hours, the cell monolayer was washed twice with PBS, and the cells were then removed with 1 ml 10x trypsin containing 5 mM EDTA. The cells were harvested with a Skatron filter apparatus, and the filters counted in a scintillation counter.” for “antagonists.”
In the case of `CCCCC[C@H](CC(C)C)NC(=O)[C@H](Cc1c[nH]cn1)NC(=O)CNC(=O)[C@@H](NC(=O)[C@H](C)NC(=O)[C@H](Cc1c[nH]c2ccccc12)NC(=O)[C@H](Cc1c[nH]cn1)NC(=O)C(C)(C)C)C(C)C` [4(R)] (Piv-HWAVGH-{NH(2-Me-nonan-4R-yl)}), the pIC50 was 8.70.
